In patent US8476023B2, “Methods relating to aromatase inhibitor pharmacogenetics” (The Penn State Research Foundation, priority 2009, dated 2013):

Key:
UGT1A8 = target: T1, UGT1A8 (Homo sapiens, UniProt Q9HAW9); test: Glucuronidation assay, UGT1A8-overexpressing HEK293 cell homogenate; type: in vitro ADME; details: up to 600 μM substrate
T1 construct: expressed in transfected cells; host or cells: HEK293
T1 sequence (Q9HAW9 26-530): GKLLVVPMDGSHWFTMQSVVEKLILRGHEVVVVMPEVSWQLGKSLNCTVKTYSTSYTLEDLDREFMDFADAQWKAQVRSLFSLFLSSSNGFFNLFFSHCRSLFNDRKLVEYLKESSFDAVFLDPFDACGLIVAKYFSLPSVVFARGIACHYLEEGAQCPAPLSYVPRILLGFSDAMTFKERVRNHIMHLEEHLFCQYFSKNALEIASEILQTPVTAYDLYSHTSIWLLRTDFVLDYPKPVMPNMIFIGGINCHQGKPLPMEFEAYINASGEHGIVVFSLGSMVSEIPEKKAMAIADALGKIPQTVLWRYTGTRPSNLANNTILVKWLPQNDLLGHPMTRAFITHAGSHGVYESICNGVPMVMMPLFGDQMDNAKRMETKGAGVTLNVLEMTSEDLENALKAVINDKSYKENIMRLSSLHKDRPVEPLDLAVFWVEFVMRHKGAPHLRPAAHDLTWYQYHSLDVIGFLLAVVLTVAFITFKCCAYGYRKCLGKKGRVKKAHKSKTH

UGT1A10 = target: T2, UGT1A10 (Homo sapiens, UniProt Q9HAW8); test: Glucuronidation assay, UGT1A10-overexpressing HEK293 cell homogenate; type: in vitro ADME; details: UGT1A10; up to 600 μM substrate
T2 construct: expressed in transfected cells; host or cells: HEK293
T2 sequence (Q9HAW8 26-530): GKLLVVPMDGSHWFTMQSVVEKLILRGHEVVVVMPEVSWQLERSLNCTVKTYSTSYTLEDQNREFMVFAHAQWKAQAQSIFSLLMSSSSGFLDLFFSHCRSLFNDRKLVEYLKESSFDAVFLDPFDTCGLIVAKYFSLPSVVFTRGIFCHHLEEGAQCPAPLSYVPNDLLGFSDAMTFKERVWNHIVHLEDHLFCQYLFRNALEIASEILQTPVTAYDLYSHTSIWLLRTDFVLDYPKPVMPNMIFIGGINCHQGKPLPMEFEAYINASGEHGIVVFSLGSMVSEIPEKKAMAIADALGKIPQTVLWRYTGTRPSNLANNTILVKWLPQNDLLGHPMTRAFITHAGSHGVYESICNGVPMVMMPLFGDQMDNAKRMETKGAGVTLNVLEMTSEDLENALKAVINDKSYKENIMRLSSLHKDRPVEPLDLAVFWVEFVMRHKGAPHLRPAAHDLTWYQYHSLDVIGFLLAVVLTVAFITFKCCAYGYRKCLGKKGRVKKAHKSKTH

UGT2B17 = target: T3, UGT2B17 (Homo sapiens, UniProt O75795); test: Glucuronidation assay, UGT2B17-overexpressing HEK293 cell homogenate; type: in vitro ADME; details: UGT2B17; up to 600 μM substrate
T3 construct: expressed in transfected cells; host or cells: HEK293
T3 sequence (O75795 24-530): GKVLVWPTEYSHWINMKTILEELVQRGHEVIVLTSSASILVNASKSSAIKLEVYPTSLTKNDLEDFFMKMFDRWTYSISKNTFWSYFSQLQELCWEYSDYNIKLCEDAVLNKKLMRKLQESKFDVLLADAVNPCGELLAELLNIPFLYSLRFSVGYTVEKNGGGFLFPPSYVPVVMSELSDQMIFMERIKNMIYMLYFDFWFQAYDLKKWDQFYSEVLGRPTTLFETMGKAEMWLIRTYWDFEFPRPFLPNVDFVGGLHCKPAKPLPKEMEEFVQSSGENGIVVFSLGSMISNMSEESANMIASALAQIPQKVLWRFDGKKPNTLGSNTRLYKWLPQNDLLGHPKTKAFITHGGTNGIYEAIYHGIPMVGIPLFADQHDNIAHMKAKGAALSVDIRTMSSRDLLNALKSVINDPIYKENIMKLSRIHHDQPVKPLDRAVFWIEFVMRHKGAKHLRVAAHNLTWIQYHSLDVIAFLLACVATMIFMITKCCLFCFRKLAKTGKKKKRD

UGT1A4^24Pro/48Leu = target: T4, UGT1A4^24Pro/48Leu (Homo sapiens, UniProt P22310); test: Glucuronidation assay, UGT1A4 24Pro/48Leu-overexpressing HEK293 cell homogenate; type: in vitro ADME; details: UGT 1A4 as worded in text; up to 600 μM substrate
T4 construct: expressed in transfected cells; host or cells: HEK293
T4 sequence (P22310 29-534): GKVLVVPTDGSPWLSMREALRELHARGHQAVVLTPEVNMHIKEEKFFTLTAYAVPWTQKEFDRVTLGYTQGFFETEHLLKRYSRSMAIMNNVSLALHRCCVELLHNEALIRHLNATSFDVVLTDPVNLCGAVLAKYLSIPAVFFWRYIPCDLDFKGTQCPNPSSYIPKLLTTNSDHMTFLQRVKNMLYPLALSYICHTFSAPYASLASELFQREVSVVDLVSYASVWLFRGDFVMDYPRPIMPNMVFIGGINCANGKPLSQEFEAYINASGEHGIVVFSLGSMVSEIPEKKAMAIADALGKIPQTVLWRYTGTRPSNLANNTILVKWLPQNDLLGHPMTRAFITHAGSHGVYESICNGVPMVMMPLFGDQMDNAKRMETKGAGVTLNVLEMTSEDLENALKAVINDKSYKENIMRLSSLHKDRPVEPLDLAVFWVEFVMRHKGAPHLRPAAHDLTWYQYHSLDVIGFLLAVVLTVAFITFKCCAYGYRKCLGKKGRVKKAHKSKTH

UGT1A4 24Thr/48Leu = test: Glucuronidation assay, UGT1A4 24Thr/48Leu-overexpressing HEK293 cell homogenate; type: in vitro ADME, human; details: human, pH 7.4
UGT1A4^24Thr/48Leu = test: as above; type: in vitro ADME, human; details: normalized per μg UGT protein by Western blot
[1] = Kinetic analysis of glucuronidation by individual HLM from UGT2B17 (*1/*1) subjects; type: in vitro ADME, human; details: human, liver microsomes of UGT2B17 (*1/*1) subjects
[2] = test system: human liver microsomes (HLM), UGT2B17 (*1/*1) genotype; test: as above; type: in vitro ADME; details: per mg HLM protein
[3] = Kinetic analysis of glucuronidation by individual HLM from UGT2B17 (*2/*2) subjects; type: in vitro ADME, human; details: human, liver microsomes of UGT2B17 (*2/*2) subjects
[4] = test system: human liver microsomes (HLM), UGT2B17 (*2/*2) genotype; test: as above; type: in vitro ADME; details: per mg HLM protein
[5] = test system: human liver microsomes (HLM); test: Rate of exemestane-17-O-glucuronide formation in a series of 110 HLM by UGT2B17 genotype; type: in vitro ADME; details: 9.4 μM 17-dihydroexemestane, p<0.001
[6] = test system: UGTs 1A1, 1A3, 1A6, 1A7, 1A9, 2B4, 2B7, 2B10, 2B11, 2B15; test: Screening of the other UGT-overexpressing HEK293 cell homogenates for glucuronidation activity; type: in vitro ADME, human; details: other UGTs screened; up to 1 mg of UGT overexpressing cell homogenate

C=C1C[C@@H]2[C@H](CC[C@]3(C)C(O)CC[C@@H]23)[C@@]2(C)C=CC(=O)C=C12 (stereo partly shown) [17-dihydroexemestane]
glucuronidation activity in UGT screen (UGT1A8): detectable activity
glucuronidation activity in UGT screen (UGT1A10): detectable activity
glucuronidation activity in UGT screen (UGT2B17): detectable activity
glucuronidation activity in UGT screen (UGT1A4^24Pro/48Leu): detectable activity
Km at 60 min (UGT1A4 24Thr/48Leu): 28 ± 7.8 µM
Vmax (UGT1A4^24Thr/48Leu): 0.26 ± 0.04 pmol · min^−1 · μg UGT protein^−1
Km at 60 min ([1]; pH 7.4, HLM # 972, UGT2B17 (*1/*1), read-out: KM): 10.6 µM
Km at 60 min ([1]; pH 7.4, HLM # 1183, UGT2B17 (*1/*1), read-out: KM): 7.2 µM
Km at 60 min ([1]; pH 7.4, HLM # 1392, UGT2B17 (*1/*1), read-out: KM): 7.1 µM
Km at 60 min ([1]; pH 7.4, HLM # 2412, UGT2B17 (*1/*1), read-out: KM): 6.7 µM
Km at 60 min ([1]; pH 7.4, mean of five UGT2B17 (*1/*1) HLM, read-out: KM, mean ± S.D.): 7.3 ± 2 µM
Vmax ([2]; HLM # 972, UGT2B17 (*1/*1)): 51.6 pmol/min/mg
Vmax ([2]; HLM # 1183, UGT2B17 (*1/*1)): 322 pmol/min/mg
Vmax ([2]; HLM # 1392, UGT2B17 (*1/*1)): 393 pmol/min/mg
Vmax ([2]; HLM # 2167, UGT2B17 (*1/*1)): 38.9 pmol/min/mg
Vmax ([2]; HLM # 2412, UGT2B17 (*1/*1)): 213 pmol/min/mg
Vmax, mean ± S.D. ([2]; mean of five UGT2B17 (*1/*1) HLM): 204 ± 158 pmol/min/mg
Km at 60 min ([3]; pH 7.4, HLM # 383, UGT2B17 (*2/*2), read-out: KM): 9.3 µM
Km at 60 min ([3]; pH 7.4, HLM # 416, UGT2B17 (*2/*2), read-out: KM): 17 µM
Km at 60 min ([3]; pH 7.4, HLM # 2174, UGT2B17 (*2/*2), read-out: KM): 12.4 µM
Km at 60 min ([3]; pH 7.4, HLM # 2175, UGT2B17 (*2/*2), read-out: KM): 13 µM
Km at 60 min ([3]; pH 7.4, HLM # 3873, UGT2B17 (*2/*2), read-out: KM): 11 µM
Km at 60 min ([3]; pH 7.4, mean of five UGT2B17 (*2/*2) HLM, read-out: KM, mean ± S.D.): 12.8 ± 3 µM
Vmax ([4]; HLM # 383, UGT2B17 (*2/*2)): 17.0 pmol/min/mg
Vmax ([4]; HLM # 416, UGT2B17 (*2/*2)): 5.6 pmol/min/mg
Vmax ([4]; HLM # 2174, UGT2B17 (*2/*2)): 13.0 pmol/min/mg
Vmax ([4]; HLM # 2175, UGT2B17 (*2/*2)): 2.3 pmol/min/mg
Vmax ([4]; HLM # 3873, UGT2B17 (*2/*2)): 8.1 pmol/min/mg
Vmax, mean ± S.D. ([4]; mean of five UGT2B17 (*2/*2) HLM): 9.2 ± 5.9 pmol/min/mg
decrease in glucuronidation activity in HLM (*2/*2) compared with HLM (*1/*1) [5]: 14 fold
glucuronidation activity in UGT screen [6]: None of the other UGTs screened in assays described herein exhibited any glucuronidation activity
